Source: PMC6401633, “Evidence for Effective Multiple K^+-Current Inhibitions by Tolvaptan, a Non-peptide Antagonist of Vasopressin V2 Receptor” (Frontiers in Pharmacology, 2019)

Biological target: T1, large-conductance Ca2+-activated K+ (BKCa) channel (Rattus norvegicus, UniProt Q62976)
T1 construct: gene Kcnma1; native channel in inside-out membrane patches of GH3 cells
Assay: single-channel patch clamp, inside-out; open probability […] to […] at […], no significant change at […]
Assay type: cell-based

T1 sequence (Q62976 whole entry): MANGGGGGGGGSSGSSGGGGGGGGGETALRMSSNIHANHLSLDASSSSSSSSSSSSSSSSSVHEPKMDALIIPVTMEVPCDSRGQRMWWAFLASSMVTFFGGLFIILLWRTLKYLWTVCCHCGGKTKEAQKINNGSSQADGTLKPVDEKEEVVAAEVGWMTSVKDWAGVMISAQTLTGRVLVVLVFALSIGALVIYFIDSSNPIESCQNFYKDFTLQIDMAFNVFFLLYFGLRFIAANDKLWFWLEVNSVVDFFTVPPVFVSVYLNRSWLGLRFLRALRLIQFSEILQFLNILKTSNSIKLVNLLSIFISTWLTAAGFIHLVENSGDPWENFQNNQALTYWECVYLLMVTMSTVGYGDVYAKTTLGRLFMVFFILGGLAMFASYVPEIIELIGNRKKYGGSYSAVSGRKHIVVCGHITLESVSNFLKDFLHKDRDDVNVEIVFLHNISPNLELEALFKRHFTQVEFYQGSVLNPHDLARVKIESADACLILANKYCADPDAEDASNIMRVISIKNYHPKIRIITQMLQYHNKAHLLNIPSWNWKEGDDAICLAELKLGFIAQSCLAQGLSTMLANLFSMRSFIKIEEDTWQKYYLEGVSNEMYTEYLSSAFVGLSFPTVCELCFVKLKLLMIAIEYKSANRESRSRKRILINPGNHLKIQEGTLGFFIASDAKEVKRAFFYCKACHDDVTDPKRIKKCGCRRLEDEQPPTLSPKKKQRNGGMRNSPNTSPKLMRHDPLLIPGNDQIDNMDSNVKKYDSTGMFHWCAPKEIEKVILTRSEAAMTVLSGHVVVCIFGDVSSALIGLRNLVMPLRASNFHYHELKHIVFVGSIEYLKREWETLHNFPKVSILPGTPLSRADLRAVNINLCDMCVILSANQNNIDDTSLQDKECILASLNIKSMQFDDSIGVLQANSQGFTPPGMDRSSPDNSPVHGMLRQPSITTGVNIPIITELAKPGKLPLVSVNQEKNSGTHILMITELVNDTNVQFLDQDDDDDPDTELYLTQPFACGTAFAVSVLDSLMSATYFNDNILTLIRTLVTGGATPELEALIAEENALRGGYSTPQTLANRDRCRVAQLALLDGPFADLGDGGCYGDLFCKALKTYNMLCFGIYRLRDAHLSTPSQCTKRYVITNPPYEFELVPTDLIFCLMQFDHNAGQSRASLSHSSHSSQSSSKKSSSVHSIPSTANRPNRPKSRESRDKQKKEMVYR

## Cc1ccccc1C(=O)Nc1ccc(C(=O)N2CCCC(O)c3cc(Cl)ccc32)c(C)c1 (stereo not shown) [TLV, N-[4-[(7-chloro-2,3,4,5-tetrahydro-5-hydroxy-1H-1-benzazepin-1-yl)carbonyl]-3-methylphenyl]-2-methylbenzamide]
  single-channel patch clamp, inside-out; open probability 0.0191 to 0.0143 at 30: 30 µM
